# Results from patent publication US20250179033A1 (priority 2021, published 2025).
# Values joined by “and” are separate entries in the source; they are usually repeats but may differ in a detail not shown here. Identical values can stand only once. Like-named read-outs stand apart in the source and are kept apart here.
# Key:
# TZM-bl cells = test: Toxicity assay in TZM-bl cells; assay type: cell-based
# In short: (§1)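 TZM-bl cells (2×10^5/mL, with DEAE-dextran) were exposed to serially diluted compound plus virus at a constant 0.005% or 0.05% DMSO for 48 h at 37 °C. CellTiter-Blue was added at 46 h and incubated 2 h. Viability was read as fluorescence at 560/590 nm after stopping with 1.5% SDS.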
# [1] = Toxicity assay in TZM-bl cells; assay type: cell-based; details: human
# In short: as §1
# HIV-1 IIIB (wild-type) = test: HIV inhibition assay in TZM-bl cells, wild-type; assay type: cell-based; details: Human immunodeficiency virus 1, IIIB; for IC50: read-out: IC50 (TZM, WT)
# In short: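 TZM-bl cells with 15 μg/mL DEAE-dextran were infected with H9-grown HIV-1 IIIB, wild-type or A17 (Y181C/K103N), in the presence of compound (0.005% or 0.05% DMSO) for 48 h at 37 °C. Luciferase RLU was read after lysis. Toxicity was measured in parallel by CellTiter-Blue fluorescence.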
# CYP3A4 = CYP3A4 (Homo sapiens, UniProt P08684); test: Human CYP inhibition in human liver microsomes; assay type: in vitro ADME
# Procedure: (§2) Study samples (containing either control inhibitor or test compound) were added into the tubes, vortexed gently and pre-incubated for 5 min at 37° C. 20 μL of NADPH solution was aliquoted into all tubes, then vortexed to start the reaction and to assure adequate mixture of the NADPH. After mixing, the tubes were incubated for 20 min at 37° C. in a shaking water bath and then quenched in […] formic acid/acetonitrile solution. After quenching, the samples were vortexed vigorously for 1 min and centrifuged at 4,000 rpm for 15 min (4° C.). 100 μL of supernatant was transferred to 0.65 ml tubes for LCMS analysis by the bioanalytical method described earlier. The CYP450 substrates and control inhibitors for each enzyme was as follows: CYP1A2 (phenacetin, naphthoflavone), CYP2C9 (diclofenac, sulfaphenazole), CYP2C19 (omeprazole, tranylcypromine), CYP2D6 (dextromethorphan, quinidine), CYP3A4 (midazolam, ketoconazole).
# CYP2D6 = CYP2D6 (Homo sapiens, UniProt P10635); test: Human CYP inhibition in human liver microsomes; assay type: in vitro ADME
# Procedure: as §2
# in vitro = in vitro ADME, human
# Procedure: Protein Binding in Plasma: The donor side of dialysis inserts were filled with 200 μL plasma (human and mouse; source BioDuro, San Diego, California, United States of America) containing 5 μM drug and 0.5% of DMSO and the receiver side of the dialysis inserts was filled with 350 μL of PBS buffer (100 mM, pH 7.4). The prepared dialysis apparatus was placed in a shaker (37° C., 100 rpm) for 5 hours. Two tubes with plasma containing 5 μM experimental compound were also prepared for stability test: one tube was placed in the […] for 5 hours and the other tube was placed in shaker ([…], 100 rpm) for 5 hours. Samples were collected from the donor and receiver sides of each dialysis insert. The same volume of blank plasma was added to buffer samples and blank buffer to plasma samples to make sure all sample mixtures contain 50% plasma and 50% buffer. 50 μL of each sample was mixed with 300 μL of acetonitrile containing 25 ng/ml internal standard (propranolol). All samples were vortexed for 1 minute and then centrifuged at 4000 rpm, 4° C. for 15 min. 100 μL of the supernatant was transferred to 0.65 ml tube for LCMS analysis. The amount of compound was determined on the basis of the peak area ratio (compound area to internal standard area) for the two sides, and protein binding is determined using the following equations: % Bound=100×([Area Ratio of Donor]5h*5−[Area Ratio of Receiver]5h)/([Area Ratio of Donor]5h*5). The percentage remaining at 37° C. after 5 hours was calculated on the basis of the amount measured at 0° C. after 5 hours.
# Huh-7D12 = test: 99% toxic dose (TD99) in Huh-7D12; assay type: cell-based
# THP-1 = test: 99% toxic dose (TD99) in THP-1; assay type: cell-based
# [2] = Table 3, TZM-bl, ± SEM, minimum 6 replicates
# Sequence of CYP2D6 (P10635 whole entry): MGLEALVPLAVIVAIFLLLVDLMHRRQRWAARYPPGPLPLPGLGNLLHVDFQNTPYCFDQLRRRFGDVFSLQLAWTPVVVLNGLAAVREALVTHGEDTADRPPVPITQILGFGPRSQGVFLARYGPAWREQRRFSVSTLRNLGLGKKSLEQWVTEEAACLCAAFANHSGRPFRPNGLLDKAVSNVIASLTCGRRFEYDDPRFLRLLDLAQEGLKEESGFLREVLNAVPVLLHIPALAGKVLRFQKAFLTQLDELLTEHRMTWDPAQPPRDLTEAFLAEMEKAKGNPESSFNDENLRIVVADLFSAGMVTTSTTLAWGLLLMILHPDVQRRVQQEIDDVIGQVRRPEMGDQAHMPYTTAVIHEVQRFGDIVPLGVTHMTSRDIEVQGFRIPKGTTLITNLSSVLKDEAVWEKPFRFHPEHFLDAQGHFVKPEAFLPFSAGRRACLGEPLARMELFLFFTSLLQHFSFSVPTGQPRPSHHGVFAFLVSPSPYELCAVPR
# Sequence of CYP3A4 (P08684 whole entry): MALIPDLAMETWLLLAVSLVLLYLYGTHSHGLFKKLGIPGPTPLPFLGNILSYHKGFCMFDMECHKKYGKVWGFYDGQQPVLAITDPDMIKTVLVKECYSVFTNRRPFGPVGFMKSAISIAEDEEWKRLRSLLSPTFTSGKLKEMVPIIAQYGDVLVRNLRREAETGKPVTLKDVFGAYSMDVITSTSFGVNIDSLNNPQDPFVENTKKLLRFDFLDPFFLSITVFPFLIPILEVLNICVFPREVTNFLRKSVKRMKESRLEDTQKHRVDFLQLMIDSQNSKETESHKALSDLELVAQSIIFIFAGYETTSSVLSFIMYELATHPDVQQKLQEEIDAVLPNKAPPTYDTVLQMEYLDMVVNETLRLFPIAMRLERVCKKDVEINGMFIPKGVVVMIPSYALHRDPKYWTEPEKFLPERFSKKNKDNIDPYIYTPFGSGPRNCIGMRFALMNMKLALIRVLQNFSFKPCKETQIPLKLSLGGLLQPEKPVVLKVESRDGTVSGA
Compound,"Qualitative Cell Toxicity within inhibition range (TZM-bl cells; Table 3, TZM-bl)","Quantitative Cell Toxicity (TZM-bl cells; Table 3, TZM-bl) [µM]","CC50 at 48 h ([1]; Table 4, TZM-bl, read-out: CC50 (TZM)) [nM]","CC50 at 48 h ([1]; text b494, FIG. 2F, read-out: cytotoxicity CC50) [nM]",IC50 (HIV-1 IIIB (wild-type); [2]) [nM],"IC50 (HIV-1 IIIB (wild-type); Table 4, TZM-bl) [nM]","EC50 (HIV-1 IIIB (wild-type); text b494, FIG. 2F, read-out: antiviral activity against wildtype, EC50) [nM]","IC50 (CYP3A4; human liver microsomes, substrate midazolam, read-out: CYP inhibition IC50, 3A4) [nM]","IC50 (CYP2D6; human liver microsomes, substrate dextromethorphan, read-out: CYP inhibition IC50, 2D6) [nM]","half-life at 5 μM (in vitro; human, plasma) [h]","fraction unbound (in vitro; human, plasma, pH 7.4, 5 μM, dialysis 5 hours, read-out: Human plasma protein binding)",Qualitative Cell Toxicity within inhibition range (TZM-bl cells),CC50 at 48 h [1] [nM],99% toxic dose (TD99) (Huh-7D12),99% toxic dose (TD99) (THP-1),IC50 (CYP3A4) [nM],IC50 (CYP2D6) [nM],"Human plasma protein binding (in vitro; 5 μM, dialysis 5 hours) [%]"
"N#C/C=C/c1ccc2c(S(=O)(=O)n3nc(Nc4ccc(C#N)c(Cl)c4)nc3N)cccc2c1 [Compound 20, 4-[[5-amino-1-[[6-[2-cyanovinyl]-1-naphthyl]sulfonyl]-1,2,4-triazol-3-yl]amino]-2-chloro-benzonitrile]",None,4.06,4950,5350,0.263 ± 0.05,0.309,0.22,31300,> 50000,> 6.21,< 0.001,,,,,,,
"Nc1nc(Nc2ccc(Cl)cc2)nn1S(=O)(=O)c1ccc2ccccc2c1 [Compound 1, N3-(4-chlorophenyl)-1-(2-naphthylsulfonyl)-1,2,4-triazole-3,5-diamine]",,,,,9.33 ± 2.27,9.33,,,,,,None,> 1000,> 11 μg/ml and > 27.5 μM,> 11 μg/ml and > 27.5 μM,> 50000,> 50000,>99.9
